What all share (experiment): NCI anticancer screen, dose series, 48 h
Experiment [1] relates to LOX IMVI.
In experiment [2] the test system is SN12C.
Experiment [3] deals with KM12.
Experiment [4] has as its system OVCAR-8.
Experiment [5] deals with EKVX.
In experiment [6] the test system is MDA-MB-231.
The test system of experiment [7] is SK-OV-3.
The test system of experiment [8] is 786-0.
In experiment [9] the test system is SK-MEL-5.
For experiment [10], the system named is MDA-MB-435.
Experiment [11] relates to CCRF-CEM.
For experiment [12], the system named is SF-295.
For experiment [13], the system named is NCI-H23.
Experiment [14] relates to UACC-257.
Experiment [15] relates to SW-620.
The test system of experiment [16] is TK-10.
In experiment [17] the test system is CAKI-1.
Experiment [18] concerns RPMI-8226.
The subject of experiment [19] is MCF7.
Experiment [20] deals with Hs-578T.

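Each compound was tested at five concentrations against cells in 96-well plates for 48 hours. Abbreviation: GI50, concentration required for 50% inhibition of growth.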 The source made the active and inactive calls. No stated cut-off is given here; in the data, active = GI50 up to about 1.1 µM and inactive = higher.

Turning to `COC(=O)[C@@H]1C=C[C@H](OC2OC(COC(C)=O)C(OC(C)=O)C(OC(C)=O)C2OC(C)=O)n2c(=O)c3ccccc3c(=O)n21` (stereo not given in full), the GI50 is 10.9 µM (inactive) in experiment [1]; > 10 µM (inactive) in experiment [2]; 10.7 µM (inactive) in experiment [3]; 16.5 µM (inactive) in experiment [4]; 16.5 µM (inactive) in experiment [5]; > 10 µM (inactive) in experiment [6]. The GI50 in [7] was 14.6 µM (inactive); in experiment [8], 16.1 µM (inactive); in experiment [9] it was 14.7 µM (inactive); in [10], 9.16 µM (inactive); in experiment [11] it was 4.14 µM (inactive); in [12], 18.8 µM (inactive). Moreover, the GI50 in [13] is 18.6 µM (inactive); in experiment [14], 17.2 µM (inactive); in [15], 12.4 µM (inactive); in experiment [16] it was 2.91 µM (inactive); in experiment [17], 3.45 µM (inactive); in experiment [18] it was 4.66 µM (inactive). The GI50 was 8.61 µM (inactive) in experiment [19] and 27.7 µM (inactive) in experiment [20].

In the case of `O=C1Sc2ccc(Br)cc2C(=O)Sc2ccccc21`, the GI50 was 9.1 µM (inactive) in experiment [1]; 14.5 µM (inactive) in experiment [2]; 16 µM (inactive) in [3]; 9.84 µM (inactive) in experiment [4]; 8.02 µM (inactive) in experiment [5]; 16.5 µM (inactive) in experiment [6]. In addition, the GI50 was 27.4 µM (inactive) in experiment [7]; 11 µM (inactive) in [8]; 14.4 µM (inactive) in experiment [9]; 7.91 µM (inactive) in experiment [10]; 2.48 µM (inactive) in [11]; 22.4 µM (inactive) in experiment [12]. Besides, the GI50 is 15.7 µM (inactive) in experiment [13]; 13.8 µM (inactive) in [14]; 17.9 µM (inactive) in [15]; 17.9 µM (inactive) in experiment [16]; 14.6 µM (inactive) in experiment [17]; 3.33 µM (inactive) in experiment [18]. The figures for the GI50 in experiment [19] and in [20] were 16.4 µM (inactive) and 11.4 µM (inactive), respectively.

As to `C=C(C)C(=O)OC1C[C@H](COC(C)=O)C2CC=C(C)C2C2OC(=O)C(=C)[C@H]12` (stereo not given in full), the GI50 in experiment [1] was 1.85 µM (inactive); in experiment [2] it was 4.97 µM (inactive); in [3] it was 11.7 µM (inactive); in experiment [4], 5.31 µM (inactive); in [5], 9.82 µM (inactive); in experiment [6] it was 4.3 µM (inactive). Besides, the GI50 in [7] is 17.2 µM (inactive); in [8] it was 2.98 µM (inactive); in [9], 7.5 µM (inactive); in [10] it was 3.33 µM (inactive); in experiment [11], 1.64 µM (inactive); in [12] it was 17.1 µM (inactive). In addition, the GI50 was 4.26 µM (inactive) in [13]; 4.09 µM (inactive) in experiment [14]; 2.23 µM (inactive) in experiment [15]; 6.76 µM (inactive) in experiment [16]; 2.81 µM (inactive) in [17]; 0.525 µM (active) in experiment [18]. Also, the GI50 in experiment [19] is 4.11 µM (inactive); in experiment [20], 4.06 µM (inactive).

`O=C(/C=C/c1ccccc1)CCN1CCOCC1`: the GI50 in [1] was 10.9 µM (inactive); in experiment [2], 14.8 µM (inactive); in experiment [3] it was 7.52 µM (inactive); in experiment [4], 15.1 µM (inactive); in experiment [5], 18.5 µM (inactive); in [6], 16.6 µM (inactive). In addition, the GI50 is 24.1 µM (inactive) in [7]; 6.85 µM (inactive) in experiment [8]; 17.5 µM (inactive) in [9]; 15 µM (inactive) in experiment [10]; 1.82 µM (inactive) in experiment [11]; 19 µM (inactive) in [12]. For the same compound, the GI50 in experiment [13] is 16.2 µM (inactive); in experiment [14], 12.2 µM (inactive); in experiment [15] it was 5.48 µM (inactive); in [16] it was 13.7 µM (inactive); in experiment [17], 8.39 µM (inactive); in [18] it was 1.56 µM (inactive). Besides, the GI50 is 4.99 µM (inactive) in experiment [19] and 27.1 µM (inactive) in experiment [20].

As for `NC(=O)NOCC1NC(=O)NC1=O` (stereo not given), the GI50 in experiment [1], in experiment [2], in experiment [3], in experiment [4], in experiment [5] and in experiment [6] was > 100 µM (inactive) throughout. In addition, the GI50 in experiment [7] is > 100 µM (inactive); in experiment [8], > 100 µM (inactive); in [9] it was > 100 µM (inactive); in [10] it was > 100 µM (inactive); in [11], 4.16 µM (inactive); in [12], > 100 µM (inactive). Moreover, the GI50 in [13], in [14], in experiment [15], in experiment [16], in [17] and in experiment [18] was > 100 µM (inactive) in each case. Moreover, the GI50 in experiment [19] and in [20] was > 100 µM (inactive) in each case.

On to `[N-]=[N+]=CC(=O)CCC(N)C(=O)O` (stereo not given), for which the GI50 in experiment [1] is 0.689 µM (active); in experiment [2], 2.77 µM (inactive); in experiment [3], 0.541 µM (active); in experiment [4] it was 2.02 µM (inactive); in [5], 4.83 µM (inactive); in experiment [6] it was 8.63 µM (inactive). The GI50 was 1.35 µM (inactive) in [7]; 2.14 µM (inactive) in [8]; 1.22 µM (inactive) in experiment [9]; 1.75 µM (inactive) in experiment [10]; 0.676 µM (active) in [11]; 1.28 µM (inactive) in experiment [12]. The GI50 in experiment [13] was 4.42 µM (inactive); in [14], 11 µM (inactive); in [15], 2.31 µM (inactive); in experiment [16], 2.07 µM (inactive); in experiment [17], 3.8 µM (inactive); in [18] it was 3.54 µM (inactive). Moreover, the results for the GI50 in experiment [19] and in experiment [20] were 0.474 µM (active) and 62.2 µM (inactive), respectively.

With `C=C1C(=O)O[C@@H]2/C=C(\C)CC/C=C(\C)CC[C@@]12O`, the GI50 in experiment [1] is 1.9 µM (inactive); in experiment [2], 2.44 µM (inactive); in experiment [3], 8.95 µM (inactive); in experiment [4], 1.91 µM (inactive); in [5], 4.13 µM (inactive); in experiment [6], 8.65 µM (inactive). For the same compound, the GI50 is 15.6 µM (inactive) in experiment [7]; 1.37 µM (inactive) in [8]; 4.59 µM (inactive) in experiment [9]; 2.62 µM (inactive) in [10]; 0.149 µM (active) in experiment [11]; 10.9 µM (inactive) in experiment [12]. Further, the GI50 in [13] was 1.67 µM (inactive); in [14], 4.86 µM (inactive); in experiment [15], 1.04 µM (active); in experiment [16], 1.73 µM (inactive); in [17], 1.35 µM (inactive); in experiment [18] it was 0.948 µM (active). For the same compound, the GI50 was 2.17 µM (inactive) in experiment [19] and 8.79 µM (inactive) in experiment [20].

For the compound `c1ccc(Nc2nn3c(CCCCCCCCc4nnc5sc(Nc6ccccc6)nn45)nnc3s2)cc1`, the GI50 is 22.1 µM (inactive) in experiment [1]; 49.1 µM (inactive) in experiment [2]; 32.2 µM (inactive) in experiment [3]; 22 µM (inactive) in [4]; 23.3 µM (inactive) in experiment [5]; 28.7 µM (inactive) in [6]. Also, the GI50 is 32.1 µM (inactive) in [7]; 23.4 µM (inactive) in experiment [8]; 12.2 µM (inactive) in experiment [9]; 25.4 µM (inactive) in experiment [10]; 20.4 µM (inactive) in experiment [11]; 24.4 µM (inactive) in [12]. In addition, the GI50 was 21.3 µM (inactive) in experiment [13]; 34.2 µM (inactive) in [14]; 29.2 µM (inactive) in experiment [15]; 28.1 µM (inactive) in experiment [16]; 29 µM (inactive) in experiment [17]; 22.3 µM (inactive) in experiment [18]. Moreover, the GI50 in [19] was 26.4 µM (inactive); in [20], 31.2 µM (inactive).

Turning to `CN1N=C(c2ccncc2)OC1c1ccc(Cl)c(Cl)c1` (stereo not given), the GI50 in experiment [1], in experiment [2], in [3], in experiment [4], in experiment [5] and in experiment [6] was > 100 µM (inactive) throughout. The GI50 in [7] is > 100 µM (inactive); in [8] it was 83.6 µM (inactive); in experiment [9], > 100 µM (inactive); in [10], > 100 µM (inactive); in [11] it was 71.6 µM (inactive); in [12], > 100 µM (inactive). For the same compound, the GI50 in experiment [13], in [14], in experiment [15], in experiment [16], in [17] and in experiment [18] was > 100 µM (inactive) each time. The GI50 in experiment [19] and in experiment [20] was > 100 µM (inactive) each time.

`CS(=O)(=O)OCC1OC(n2ccc(NC(=O)c3ccccc3)nc2=O)CC1OS(C)(=O)=O` (stereo not given): the GI50 in experiment [1], in experiment [2], in experiment [3], in experiment [4], in [5] and in experiment [6] was > 100 µM (inactive) in each case. Besides, the GI50 in experiment [7], in experiment [8], in experiment [9], in experiment [10], in [11] and in experiment [12] was > 100 µM (inactive) in each case. The GI50 in [13], in [14], in [15], in experiment [16], in [17] and in experiment [18] was > 100 µM (inactive) throughout. Further, the GI50 in experiment [19] and in [20] was > 100 µM (inactive) in each case.

The record behind these values is ChEMBL document CHEMBL1201862, “PubChem BioAssay data set” (2004).
